Legend:
Test in all cases: prolyl hydroxylation assay of HIF-1α peptide, VBC binding by fluorescence polarization
Format in all cases: biochemical
HIF-PHD1 = molecular target: T1, HIF-PHD1 (Homo sapiens, UniProt Q96KS0)
T1 construct: gene EGLN2

HIF-PHD3 = molecular target: T2, HIF-PHD3 (Homo sapiens, UniProt Q9H6Z9)
T2 construct: gene EGLN3

HIF-PHD2 = molecular target: T3, HIF-PHD2 (Homo sapiens, UniProt Q9GZT9)
T3 construct: gene EGLN1
T3 sequence (Q9GZT9 2-426): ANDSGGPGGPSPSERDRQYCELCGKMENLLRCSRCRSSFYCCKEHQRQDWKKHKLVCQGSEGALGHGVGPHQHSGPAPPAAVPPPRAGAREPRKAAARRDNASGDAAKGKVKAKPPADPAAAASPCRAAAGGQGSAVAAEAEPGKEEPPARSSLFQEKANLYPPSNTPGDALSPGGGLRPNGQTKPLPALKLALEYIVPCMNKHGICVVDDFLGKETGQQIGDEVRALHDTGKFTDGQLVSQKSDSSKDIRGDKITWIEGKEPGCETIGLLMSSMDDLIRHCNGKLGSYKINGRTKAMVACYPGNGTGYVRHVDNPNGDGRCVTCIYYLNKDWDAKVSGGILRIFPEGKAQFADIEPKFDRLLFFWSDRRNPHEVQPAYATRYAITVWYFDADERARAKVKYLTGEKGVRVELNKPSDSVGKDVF

T2 sequence (Q9H6Z9 whole entry): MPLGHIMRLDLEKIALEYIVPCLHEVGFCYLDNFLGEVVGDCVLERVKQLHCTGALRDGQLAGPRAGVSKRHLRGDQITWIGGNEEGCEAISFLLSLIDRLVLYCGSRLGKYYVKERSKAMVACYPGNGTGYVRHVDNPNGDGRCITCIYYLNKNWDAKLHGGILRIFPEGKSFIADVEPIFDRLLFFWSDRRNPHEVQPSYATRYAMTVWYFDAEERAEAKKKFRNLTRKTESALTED
T1 sequence (Q96KS0 whole entry): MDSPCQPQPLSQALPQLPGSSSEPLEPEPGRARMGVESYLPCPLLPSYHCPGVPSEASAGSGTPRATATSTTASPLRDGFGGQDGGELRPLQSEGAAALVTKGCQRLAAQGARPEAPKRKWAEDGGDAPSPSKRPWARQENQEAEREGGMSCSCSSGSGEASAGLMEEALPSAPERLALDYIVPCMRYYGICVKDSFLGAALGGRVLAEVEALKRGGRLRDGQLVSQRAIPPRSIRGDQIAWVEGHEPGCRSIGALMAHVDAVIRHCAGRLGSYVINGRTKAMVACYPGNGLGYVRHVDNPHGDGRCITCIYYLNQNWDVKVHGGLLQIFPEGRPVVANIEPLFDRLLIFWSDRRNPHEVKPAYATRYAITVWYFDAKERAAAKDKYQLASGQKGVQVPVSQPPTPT

For CG-598, the IC50 (HIF-PHD1) was 0.03 µM, the IC50 (HIF-PHD3) was 0.08 µM and the IC50 (HIF-PHD2) was 0.02 µM.

From paper PMC7840603, “Local Stabilization of Hypoxia-Inducible Factor-1α Controls Intestinal Inflammation via Enhanced Gut Barrier Function and Immune Regulation” (Frontiers in Immunology, 2021)
